Patent publication US6762207B1, “(E)-styryl sulfone anticancer agents” (priority 1999, dated 2004)

How the values were obtained:
Assay type in all cases: cell-based
Design in all cases: dose or concentration left out as unconfirmed
Details in all cases: 96 hours
[1] = test system: prostate tumor cell line DU-145; assay: Trypan blue exclusion viability assay, DU145
Experimental: (§1) MCF-7 is estrogen-responsive, while BT-20 is an estrogen-unresponsive cell line. NIH/3T3 and HFL are normal murine and human fibroblasts, respectively. MCF-7, BT-20, DLD-1 and H157 were grown in Dulbecco's modified Eagle's medium (DMEM) containing 10% fetal bovine serum supplemented with penicillin and streptomycin. DU145 was cultured in RPMI with 10% fetal bovine serum containing penicillin and streptomycin. […] All cell cultures were maintained at 37° C. in a humidified atmosphere of 5% CO2. Cells were treated with test compound at 2.5 mM concentration and cell viability was determined after 96 hours by the Trypan blue exclusion method.

[2] = test system: colorectal carcinoma cell line DLD-1; assay: Trypan blue exclusion viability assay, DLD-1
Experimental: as §1

[3] = test system: breast tumor cell line BT-20; assay: Trypan blue exclusion viability assay, BT20
Experimental: as §1

[4] = test system: non-small cell lung carcinoma cell line H157; assay: Trypan blue exclusion viability assay, H157
Experimental: as §1

| SMILES | Cell death, DU145 [1] | Cell death, DLD-1 [2] | Cell death, BT20 [3] | Cell death, H157 [4] |
| --- | --- | --- | --- | --- |
| O=S(=O)(/C=C/c1ccc(Br)cc1)Cc1ccc(C(F)(F)F)cc1 [Example 3, (E)-4-Bromostyryl-4-trifluoromethylbenzylsulfone] | + (5-10%: = +) | + (5-10%: = +) | ++ (10-15% = ++) |  |
| O=S(=O)(/C=C/c1ccc(Cl)cc1)Cc1ccc(Cl)c(Cl)c1 [Example 7, (E)-4-Chlorostyryl-3,4-dichlorobenzylsulfone] | − (0% = −) |  | ++ (10-15% = ++) |  |
| O=S(=O)(/C=C/c1ccc(Br)cc1)Cc1ccc(Cl)c(Cl)c1 [Example 8, (E)-4-Bromostyryl-3,4-dichlorobenzylsulfone] | − (0% = −) | − (0% = −) | − (0% = −) |  |
| O=S(=O)(/C=C/c1ccc(F)cc1)Cc1ccc(I)cc1 [Example 19, (E)-4-Fluorostyryl-4-iodobenzylsulfone] | +++++ (Above 80% = +++++) | +++++ (Above 80% = +++++) | +++++ (Above 80% = +++++) | +++++ (Above 80% = +++++) |
| O=S(=O)(/C=C/c1ccc(I)cc1)Cc1ccc(Cl)cc1 [Example 21, (E)-4-Iodostyryl-4-chlorobenzylsulfone] | ++ (10-15% = ++) | ++ (10-15% = ++) | ++ (10-15% = ++) | ++ (10-15% = ++) |
| O=S(=O)(/C=C/c1ccc(I)cc1)Cc1ccc(Br)cc1 [Example 22, (E)-4-Iodostyryl-4-bromobenzylsulfone] | ++ (10-15% = ++) | ++ (10-15% = ++) | ++ (10-15% = ++) | ++ (10-15% = ++) |
| O=S(=O)(/C=C/c1ccc(Cl)cc1)Cc1ccc(I)cc1 [Example 23, (E)-4-Chlorostyryl-4-iodobenzylsulfone] | ++ (10-15% = ++) | ++ (10-15% = ++) | +++ (40-50% = +++) | ++ (10-15% = ++) |
| O=[N+]([O-])c1ccccc1/C=C/S(=O)(=O)Cc1ccc(I)cc1 [Example 25, (E)-2-Nitrostyryl-4-iodobenzylsulfone] | ++ (10-15% = ++) | ++ (10-15% = ++) | ++ (10-15% = ++) | ++ (10-15% = ++) |
| O=[N+]([O-])c1ccccc1/C=C/S(=O)(=O)Cc1ccc(F)cc1 [Example 29, (E)-2-nitrostyryl-4-fluorobenzylsulfone] | + (5-10%: = +) | + (5-10%: = +) | + (5-10%: = +) | + (5-10%: = +) |
| O=[N+]([O-])c1cccc(/C=C/S(=O)(=O)Cc2ccc(F)cc2)c1 [Example 30, (E)-3-nitrostyryl-4-fluorobenzylsulfone] | + (5-10%: = +) | + (5-10%: = +) | + (5-10%: = +) | + (5-10%: = +) |
| O=[N+]([O-])c1ccc(/C=C/S(=O)(=O)Cc2ccc(F)cc2)cc1 [Example 31, (E)-4-nitrostyryl-4-fluorobenzylsulfone] | ++++ (50-60% = ++++) | ++++ (50-60% = ++++) | ++++ (50-60% = ++++) | ++++ (50-60% = ++++) |
| O=S(=O)(/C=C/c1ccccc1C(F)(F)F)Cc1ccc(F)cc1 [Example 32, (E)-2-trifluoromethylstyryl-4-fluorobenzylsulfone] | + (5-10%: = +) | + (5-10%: = +) | + (5-10%: = +) | + (5-10%: = +) |
| O=S(=O)(/C=C/c1cccc(C(F)(F)F)c1)Cc1ccc(F)cc1 [Example 33, (E)-3-trifluoromethylstyryl-4-fluorobenzylsulfone] | + (5-10%: = +) | + (5-10%: = +) | + (5-10%: = +) | + (5-10%: = +) |
| O=S(=O)(/C=C/c1ccc(C(F)(F)F)cc1)Cc1ccc(F)cc1 [Example 34, (E)4-trifluoromethylstyryl-4-fluorobenzylsulfone] | + (5-10%: = +) | + (5-10%: = +) | + (5-10%: = +) | + (5-10%: = +) |
| O=S(=O)(/C=C/c1ccc(F)cc1C(F)(F)F)Cc1ccc(F)cc1 [Example 35, (E)-2-trifluoromethy-4-fluorostyryl-4-fluorobenzylsulfone] | + (5-10%: = +) | + (5-10%: = +) | + (5-10%: = +) | + (5-10%: = +) |
| O=[N+]([O-])c1ccccc1/C=C/S(=O)(=O)Cc1ccc(Cl)cc1 [Example 36, (E)-2-nitrostyryl-4-chlorobenzylsulfone] | + (5-10%: = +) | + (5-10%: = +) | + (5-10%: = +) | + (5-10%: = +) |
| O=[N+]([O-])c1cccc(/C=C/S(=O)(=O)Cc2ccc(Cl)cc2)c1 [Example 37, (E)-3-nitrostyryl-4-chlorobenzylsulfone] | + (5-10%: = +) | + (5-10%: = +) | + (5-10%: = +) | + (5-10%: = +) |
| O=[N+]([O-])c1ccc(/C=C/S(=O)(=O)Cc2ccc(Cl)cc2)cc1 [Example 38, (E)-4-nitrostyryl-4-chlorobenzylsulfone] | ++++ (50-60% = ++++) | ++++ (50-60% = ++++) | ++++ (50-60% = ++++) | ++++ (50-60% = ++++) |
| O=S(=O)(/C=C/c1ccccc1C(F)(F)F)Cc1ccc(Cl)cc1 [Example 39, (E)-2-trifluoromethylstyryl-4-chlorobenzylsulfone] | + (5-10%: = +) | + (5-10%: = +) | + (5-10%: = +) | + (5-10%: = +) |
| O=S(=O)(/C=C/c1cccc(C(F)(F)F)c1)Cc1ccc(Cl)cc1 [Example 40, (E)-3-trifluoromethylstyryl-4-chlorobenzylsulfone] | + (5-10%: = +) | + (5-10%: = +) | + (5-10%: = +) | + (5-10%: = +) |
| O=S(=O)(/C=C/c1ccc(C(F)(F)F)cc1)Cc1ccc(Cl)cc1 [Example 41, (E)-4-trifluoromethylstyryl-4-chlorobenzylsulfone] | + (5-10%: = +) | + (5-10%: = +) | + (5-10%: = +) | + (5-10%: = +) |
| O=S(=O)(/C=C/c1ccc(F)cc1C(F)(F)F)Cc1ccc(Cl)cc1 [Example 42, (E)-2-trifluoromethyl-4-fluorostyryl-4-chlorobenzylsulfone] | + (5-10%: = +) | + (5-10%: = +) | + (5-10%: = +) | + (5-10%: = +) |
| Cc1cc(/C=C/S(=O)(=O)Cc2ccc(Cl)cc2)ccc1F [Example 43, (E)-3-methyl-4-fluorostyryl-4-chlorobenzylsulfone] | + (5-10%: = +) | + (5-10%: = +) | + (5-10%: = +) | + (5-10%: = +) |
| O=[N+]([O-])c1ccccc1/C=C/S(=O)(=O)Cc1ccc(Cl)cc1Cl [Example 44, (E)-2-nitrostyryl-2,4-dichlorobenzylsulfone] | + (5-10%: = +) | + (5-10%: = +) | + (5-10%: = +) | + (5-10%: = +) |
| O=S(=O)(/C=C/c1ccc(F)cc1C(F)(F)F)Cc1ccc(Cl)cc1Cl [Example 45, (E)-2-trifluoromethyl-4-fluorostyryl-2,4-dichlorobenzylsulfone] | +++ (40-50% = +++) | +++ (40-50% = +++) | +++ (40-50% = +++) | +++ (40-50% = +++) |
